Assay results reported in patent US20220380331A1, “TREATMENT OF CONDITIONS OF THE NERVOUS SYSTEM” (priority 2019, published 2022).

What was measured:
PNNs in the spinal cord = assay: Short-term (10 days) PNNi administration, histology of PNN/ECM components in the CNS; format: in vivo, rat
Method: Animals were given an overdose of sodium pentobarbital (Pentoject; Henry Schein; 200 mg/kg; intraperitoneal injection) to deeply […] without halting cardiac function. A transcardial perfusion (Gage et al., 2012) was then performed using sodium phosphate buffer (PB; 0.12 M sodium phosphate monobasic; 0.1 M NaOH; pH 7.4) followed by 4% paraformaldehyde (PFA; in PB; pH 7.4) for tissue fixation. The brain and spinal cord were dissected out, post-fixed in PFA (4%; 4° C.) overnight and cryoprotected in 30% sucrose solution (30% v/w sucrose in PB; 4° C.) until tissue saturation. The left brain hemisphere and appropriate spinal cord segments were excised and frozen in optimum temperature medium (OCT; Leica FSC 22 Frozen Section Media; Leica Biosystems) before storage at -80° C. until sectioning. Sectioning of tissue was performed using a cryostat (Leica CM1850; Leica Biosystems) into 40 μm transverse sections for free-floating sections and collected into 48-well plates containing physiological buffer solution (PBS; 0.13 M sodium chloride, […], 0.003 M sodium phosphate monobasic; pH 7.4) to remove the OCT before being transferred to 30% sucrose solution for storage at 4° C. At room temperature (RT), sections were washed three times for 5 min each in Tris-buffered saline (TBS; 0.1 M tris base, 0.15 M NaCl; pH 7.4) to remove sucrose residue. Tissue was then blocked in 0.3% TBST (1×TBS solution and 0.3% v/v Triton X-100) and 3% normal donkey serum (NDS; v/v) for two hours. The sections were then transferred to co-incubate at 4° C. in blocking buffer (3% NDS in 0.3% TBST; pH 7.4) containing primary antibodies. Following primary antibody or lectin incubation, sections were then washed thrice using TBS (10 mins; RT). To visualise each primary antibody staining, the tissue was then co-incubated in darkness with the fluorescent-conjugated secondary antibodies (1:500; 2 hrs; RT) against the species of the primary antibodies. Tissues were then washed three times in TBS (10 mins; RT) whilst protected from light. A final wash in Tris non-saline (TNS; 0.5 M Tris, pH 7.6) was given to reduce precipitation before air-drying. Tissues were mounted on Superfrost Plus slides, air-dried and coverslipped with the mounting medium FluorSaveTM Reagent (EMD Millipore). Lectins: biotinylated Wisteria floribunda agglutinin (bio-WFA), biotinylated hyaluronan binding protein (bHABP). […] PNNi treatment was consequently investigated in vivo, with short-term administration (10 days) via either oral feeding or intraperitoneal (i.p.) injection twice daily. […] Quantification in the dorsal horn of the spinal cord illustrated that ten days of oral PNNi administration induced a partial removal of WFA-positive moieties to 71.0±7.20% of baseline ECM levels (t(3)=5.15, p=0.0142; FIG. 9P). […] As oral PNNi treatment is both non-invasive and generated sufficient effects on the neural ECM in vivo, the following PNNi dosing experiments with Lister Hooded rats used this method of administration.

[1] = tested on: locomotor function of intact rats; assay: BBB open field locomotor testing in intact rats after ten days of oral PNNi; format: in vivo, rat; details: short-term treatment
Method: HL locomotor ability was assessed at various time points throughout the acute SCI paradigm using the BBB HL locomotor scale. BBB testing was carried out using an open locomotor field (custom-built Perspex O-ring: diameter 80 cm, height 30 cm) where animals were placed for a duration of 4 minutes (FIG. 2). Each BBB test was simultaneously assessed by two individuals. The resulting scores were pooled and averaged for objectivity. BBB testing assesses HL motor function using a ranking scale from 0-21. Animals are ranked into three broad categories based on their BBB score: early phase (score of 0-7) presenting little to no limb movement; intermediate stage (score of 8-13) with bouts of uncoordinated stepping; and the late stage (score of 14-21) presenting with FL and HL coordination and stability (Basso et al., 1995). Following injury, BBBs were then carried out at 1 DPI to confirm injury and then weekly from 7 DPI. If animals also received rehabilitative training, BBBs were carried out beforehand.

PNN-HEK293 cells = assay: Immunocytochemistry of PNN formation (WFA) with PNNi analogues; format: cell-based, human
Method: To compare the efficacy of PNNi, JD009, and JD013 in reducing PNN formation, immunocytochemistry was conducted using the N-acetylgalactosamine-binding lectin WFA to label PNNs. PNN-HEK293 cells were exposed to 0.5 mM and 1 mM of the compounds for 3 days in vitro. […] Quantification of WFA fluorescence intensity per cell was derived in matched regions of interest (ROI) and normalising overall WFA fluorescence intensity to cell number.

mice = details: 6.8-12.8 g/kg in mice continuously for 6 months

Structure (SMILES): Cc1cc(=O)oc2cc(O)ccc12 [PNNi, 4-methylumbelliferone]
- WFA-positive moieties, of baseline ECM levels (PNNs in the spinal cord; dorsal horn of the spinal cord, ten days oral): 71.0±7.20%
- HAPLN-1 staining, of baseline levels (PNNs in the spinal cord; dorsal horn, short-term oral): 68.3±8.09%
- staining with HA binding protein (HABP), of baseline levels (PNNs in the spinal cord; dorsal horn, short-term oral): 64.0±5.84%
- PNNs (ACAN staining, HABP) after 10 days oral administration in intact rats (PNNs in the spinal cord; intact rats, 10 days oral): PNNs are reduced
- WFA-positive binding throughout the CNS compared to non-treated animals (PNNs in the spinal cord; ten days dosing, oral feeding or i.p. injection twice daily): sufficient in decreasing WFA-positive binding
- chondroitin sulphate and hyaluronan in the spinal cord (PNNs in the spinal cord; ten-day non-invasive oral administration): down-regulates both chondroitin sulphate and hyaluronan
- BBB hindlimb scale score [1]: 21
- PNN morphology and expression (WFA fluorescence intensity per cell) (PNN-HEK293 cells; 0.5 mM and 1 mM, 3 days in vitro): insufficient to cause substantial changes in PNN morphology and expression
- PNN morphology and expression (WFA staining intensity) (PNN-HEK293 cells; 1 mM and 2 mM (FIG. 14 legend)): insufficient to cause substantial changes in PNN morphology and expression
- lethality and adverse signs (mice): did not show any lethality
